Numbered stars: 1 amine (or outer) side, 2 acyl side, 3 side chain; on linkers, the order of the positions; unused ones are H or OH. Bridge positions count the residues as written; N and C are the ends. Square brackets hold non-standard residues; d marks the D form. Peptide text beside a SMILES is read from it. Ala(Nα-(CH2)3CO) = C[C@@H](C(=O)[*:2])N(CCCC(=O)[*:3])[*:1]; Ala(Nα-(CH2)3NH) = C[C@@H](C(=O)[*:2])N(CCCN[*:3])[*:1]
Experiments:
[1] = system: IL-6 mediated acute-phase response; assay: IL-6 mediated acute-phase response (turpentine model); format: in vivo, mice
Description: The objective was to establish a simple first-line in-vivo model, for testing the activity of IL-6 inhibitors. The turpentine model was chosen based on the principal role that IL-6 plays in this inflammatory response.
Systemic and localized inflammation elicit a general reaction in the organism, known as the acute phase response, which includes fever, loss of body weight, hypoglycemia, and changes in the serum levels of several plasma proteins produced by the liver. IL-6 is an important mediator of the acute-phase reaction (see Heinrich et.al., Biochemistry J. 1 265:621, 1990 for a comprehensive review), together with IL-1 and TNF-α. It has been shown previously that sterile tissue damage caused by injection of turpentine induces an acute-phase reaction, and that IL-6 is an essential mediator of this response (Rokita et.al., Cytokine 5:454, 1993).
IL-6 knock-out (-/-) and matched wild-type (C57/Black; CB) mice were used. Sterile tissue damage was induced by subcutaneous injection of turpentine, 0.1 ml, into both hind limbs. IL-6 was determined in the serum by ELISA (QuantikineM, R&D). For liver acute-phase proteins, Fibrinogen was determined in citrated plasma, by the calcium method.
PTR 5045 (SEQ ID NO:75) was tested in this model in compare to the non-relevant control peptide PTR 4041 (SEQ ID NO:33) (Lys-GlyC2-Leu-Ile-Gln-Leu-Phe-GlyN3-Lys-Lys-NH2).

[2] = Metabolic stability in vitro against renal homogenate; format: in vitro ADME
Experimental: The special feature of the novel backbone cyclic peptide analogs is their metabolic stability as tested in vitro against degradation of the most aggressive enzyme mixture in the body (e.g., renal homogenate). PTR 5045 is stable under these conditions for up to 24 hours.

B16.F10.9 melanoma cells = conditions: 200 ng/ml IL-6 and 125 ng/ml sIL-6R, three days, FIG. 2
Description: The F10.9 sub-line of B16 (murine melanoma) expresses gp130 but not IL-6R. Addition of human IL-6 and human IL-6R, or a chimera of IL-6/IL-6R results in differentiation which is associated with growth arrest of the cells. Inhibition of IL-6 results in continued growth. Since the end point of this assay is cell growth rather than cell death, this assay system was used primarily in order to differentiate between suspected toxic effects observed on B9 or T1165 cells, and true inhibition of IL-6 activity.
Evaluation of the results in this assay is possible using two methods. One method uses vital dyes for monitoring cell growth. The second method comprises visual observation of the cell morphology and establishing a cut off point based on the following observations:
Cells which are not treated with IL-6 create a monolayer that covers almost all the surface area. Treatment with IL-6 causes growth arrest and a morphological change: the cells become very narrow and elongated as compared to the more spread out shape of the non-treated cells.
Peptides were added to B16.F10.9 melanoma cells in the presence of 200 ng/ml IL-6 and 125 ng/ml sIL-6R. Incubation for three days.

A375 cells = assay: Bioassay using A375 cells, cytokines other than IL-6; format: cell-based, human; conditions: maximal inhibitory activity of IL-6 on A375 cells = 100%
Description: The A375 are human melanoma cells. IL-6 induces differentiation of A375 cells which is associated with growth arrest similar to the phenomenon observed with the B16F10.9 murine melanoma cells. Thus, inhibition of IL-6 results in continued growth of the cells which is easily quantifiable. In such case toxicity of peptides would register as a false negative rather than false positive. This conditions is preferable during screening process. Second, since these are human cells, the molecules involved in the bio-response, i.e. IL-6, IL-6R and gp130 are all of human origin thus ensuring authenticity of the tested peptide bioactivity. Another advantage of the A375 cells is their ability to be induced by other cytokines that share the gp130 signal transducer, i.e. leukemia inhibitory factor (LIF) and oncostatine M (OSM). […] The availability of this assay system, allows us to test, the specificity of our IL-6 inhibitory peptides vs. other cytokines of the family, in an array of assays all using a single cell line. Assay performance is described in Savino et al. (ibid).

[3] = target: leukocyte inhibitory factor receptor (LIF-R); assay: cell-based or functional assay
[4] = mice, turpentine, 1 or 10 mg/kg of peptide

CC(C)C[C@@H]1NC(=O)[C@H](C)N(C(=O)[C@H](Cc2ccccc2)NC(=O)[C@@H](CCCNC(=N)N)NC(=O)[C@H](CCCCN)NC(=O)[C@H](CCCNC(=N)N)NC(=O)[C@@H](N)Cc2c[nH]c3ccccc23)CCCC(=O)NCCCN([C@@H](C)C(N)=O)C(=O)[C@@H](Cc2ccc(O)cc2)NC(=O)[C@H](CCCNC(=N)N)NC1=O [PTR 5045, Trp-Arg-Lys-(D)Arg-Phe-AlaC3-Leu-Arg-(D)Tyr-AlaN3-NH2] (H-WRK[dR]F[Ala(Nα-(CH2)3CO)]LR[dY][Ala(Nα-(CH2)3NH)]-NH2; lactam 6-10)
Mean weight loss % [1, 4]: −3.93% | Mean weight loss grams [1, 4]: −1.35 grams | reduction of the effect mediated by IL-6 on body weight during acute inflammation ([1]; versus control peptide PTR 4041): reduces by about half | time stable against degradation by renal homogenate [2]: up to 24 hours | concentration that fully blocks IL-6 activity (B16.F10.9 melanoma cells): about 250 nM

LIF: leukemia inhibitory factor, cytokine that shares the gp130 signal transducer
% Inhibition (relative to IL-6) (A375 cells; cytokine 1 ng/ml): 1% | % Inhibition (relative to IL-6) (A375 cells; cytokine 10 ng/ml): 2%

leukemia inhibitory factor (LIF) (ligand)
% Inhibition (relative to IL-6) of A375 cells, LIF + LIFR at 10 ng/ml [3]: 45%

B1: OSM: oncostatine M, cytokine that shares the gp130 signal transducer (protein, UniProt P13725 26-221, looked up)
Oncostatin-M: AAIGSCSKEYRVLLGQLQKQTDLMQDTSRLLDPYIRIQGLDVPKLREHCRERPGAFPSEETLRGLGRRGFLQTLNATLGCVLHRLADLEQRLPKAQDLERSGLNIEDLEKLQMARPNILGLRNNIYCMAQLLDNSDTAEPTKAGRGASQPPTPTPASDAFQRKLEGCRFLHGYHRFMHSVGRVFSKWGESPNRSRR
% Inhibition (relative to IL-6) (A375 cells; cytokine 1 ng/ml): 94% | % Inhibition (relative to IL-6) (A375 cells; cytokine 10 ng/ml): 141%
